Reference: ChEMBL document CHEMBL1201862, “PubChem BioAssay data set” (2004)
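1) Cells in 96-well plates. 2) Compound, 48 h, 5 concentrations. 3) Linear interpolation between surrounding doses. 4) Unreached endpoint = highest concentration. GI50 = concentration required for 50% inhibition of growth.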 Calls of active or inactive are those of the source. No stated cut-off is given here; in the data, active = GI50 up to about 1.1 µM and inactive = higher.

Tests used:
Assay in all cases: NCI anticancer screen, dose series, 48 h
[1] = test system: SF-268
[2] = test system: MOLT-4
[3] = test system: OVCAR-5
[4] = test system: TK-10
[5] = test system: CCRF-CEM
[6] = test system: LOX IMVI
[7] = test system: SW-620
[8] = test system: SR
[9] = test system: HOP-62
[10] = test system: COLO 205
[11] = test system: UO-31
[12] = test system: SK-OV-3
[13] = test system: HCC 2998
[14] = test system: KM12
[15] = test system: K562
[16] = test system: SN12C
[17] = test system: RXF 393
[18] = test system: HL-60
[19] = test system: NCI/ADR-RES

Measured: GI50

CN1C(=O)CN2C(Cl)(Cl)C2(c2ccccc2F)c2cc([N+](=O)[O-])ccc21 (stereo unspecified)
inactive: [1] 51.1 µM | [2] 17.3 µM | [3] > 100 µM | [4] 60.7 µM | [5] 29 µM | [6] 35.7 µM | [7] 69 µM | [8] 33 µM | [9] > 100 µM | [10] 52.1 µM | [11] 42.7 µM | [12] > 10 µM | [13] 22.7 µM | [14] 38.7 µM | [15] 36.8 µM | [16] 25.2 µM | [17] 14.6 µM

CC1(O)C=CC2CCC1C2O (stereo unspecified)
inactive: [1] 29.3 µM | [2] > 100 µM | [3] > 100 µM | [4] > 100 µM | [5] > 100 µM | [6] 21.5 µM | [18] > 100 µM | [8] 23.7 µM | [9] > 100 µM | [10] 30.3 µM | [11] > 100 µM | [12] > 100 µM | [14] > 100 µM | [15] > 100 µM | [16] > 100 µM | [17] 87.5 µM

C=CCC12CC(=O)CCC1CC(=O)C2 (stereo unspecified)
inactive: [1] > 100 µM | [2] > 100 µM | [4] > 100 µM | [5] > 100 µM | [7] > 100 µM | [18] > 100 µM | [8] > 100 µM | [9] > 100 µM | [10] > 100 µM | [11] > 100 µM | [12] > 100 µM | [13] > 100 µM | [14] > 100 µM | [15] > 100 µM | [16] > 100 µM | [17] > 100 µM

CC1(C)OP(=O)(c2ccccc2)C=C1Br (stereo unspecified)
inactive: [19] > 100 µM | [1] > 100 µM | [3] > 100 µM | [4] > 100 µM | [6] > 100 µM | [7] > 100 µM | [18] 21 µM | [8] > 100 µM | [9] > 100 µM | [10] > 100 µM | [12] > 100 µM | [13] > 100 µM | [14] > 100 µM | [15] > 100 µM | [16] > 100 µM

C[C@H](NC(=O)OC1C2C=CC(O)C1CC2)c1ccccc1 (stereo partly specified)
inactive: [1] > 100 µM | [2] > 100 µM | [3] > 100 µM | [4] > 100 µM | [5] 81.1 µM | [6] > 100 µM | [18] > 100 µM | [8] 21.4 µM | [9] > 100 µM | [10] 40.9 µM | [11] > 100 µM | [12] > 100 µM | [13] > 100 µM | [14] > 100 µM | [15] > 100 µM | [16] > 100 µM | [17] > 100 µM

Cc1ccc(C2C(Cl)C(=O)N2n2cnc3ccccc3c2=O)cc1 (stereo unspecified)
inactive: [1] > 100 µM | [2] 39.4 µM | [3] > 100 µM | [4] > 100 µM | [5] > 100 µM | [6] > 100 µM | [7] > 100 µM | [18] 29.6 µM | [8] 21.5 µM | [9] > 100 µM | [10] > 100 µM | [11] 23.4 µM | [12] 67.3 µM | [13] > 100 µM | [14] > 100 µM | [15] 52.2 µM | [16] > 100 µM | [17] > 100 µM

O=NN(CCCl)C(=O)N[C@H]1CC[C@@H](CC(=O)O)CC1
inactive: [19] > 100 µM | [1] 33 µM | [2] 44 µM | [3] > 100 µM | [5] 28.6 µM | [6] > 54.2 µM | [7] > 100 µM | [18] 38.3 µM | [9] > 100 µM | [10] > 100 µM | [11] > 100 µM | [12] > 100 µM | [13] > 100 µM | [14] > 100 µM | [15] > 100 µM | [16] > 100 µM | [17] > 100 µM

COc1ccc(C2S/C(=C\c3ccc(O)cc3)C(=O)N2NC(=O)Cc2ccccc2)cc1 (stereo unspecified)
inactive: [1] > 100 µM | [2] > 100 µM | [3] > 100 µM | [4] > 100 µM | [5] > 100 µM | [6] > 100 µM | [7] > 100 µM | [18] > 100 µM | [8] > 100 µM | [9] > 100 µM | [10] > 100 µM | [11] > 100 µM | [12] > 100 µM | [14] > 100 µM | [15] > 100 µM | [16] > 100 µM | [17] > 100 µM

O=C(/C=C/C1C(=O)NC(=O)NC1=O)CC(=O)C(=O)Nc1cc(Cl)c(Cl)cc1Cl
inactive: [1] > 100 µM | [2] > 100 µM | [3] > 100 µM | [4] > 100 µM | [5] > 100 µM | [6] > 100 µM | [7] > 100 µM | [18] > 100 µM | [8] > 100 µM | [9] > 100 µM | [10] > 100 µM | [11] > 100 µM | [12] > 100 µM | [13] > 100 µM | [14] > 100 µM | [15] > 100 µM | [16] > 100 µM | [17] > 100 µM

CC1OC(OCC2OC(Oc3c(-c4ccc(O)cc4)oc4cc(O)cc(O)c4c3=O)C(OC3OC(C)C(O)C(O)C3O)C(O)C2O)C(O)C(O)C1O (stereo unspecified)
inactive: [1] > 100 µM | [2] > 100 µM | [3] > 100 µM | [4] > 100 µM | [5] > 51.5 µM | [6] > 63.1 µM | [7] > 36.2 µM | [18] > 100 µM | [8] > 100 µM | [9] > 100 µM | [10] > 46 µM | [11] > 100 µM | [12] > 100 µM | [13] > 100 µM | [14] > 100 µM | [15] > 31.6 µM | [16] > 100 µM | [17] > 100 µM

C[C@@H]1CC2(C[C@@H](C)C3[C@@H](CC4(C)CCCC5C6=CC(O)(CC[C@]34C)OC6=CC(=O)OC5(C)C)O2)OC1=O (stereo partly specified)
inactive: [2] > 100 µM | [3] > 100 µM | [4] > 100 µM | [6] > 100 µM | [7] > 100 µM | [18] > 100 µM | [8] > 100 µM | [10] > 100 µM | [11] > 100 µM | [12] > 100 µM | [13] > 100 µM | [14] > 100 µM | [15] 84.3 µM | [16] > 100 µM | [17] > 100 µM

COC[C@@H]1Cc2cc(OC)c3c(c2[C@H](c2ccc(OC)c(OC)c2)[C@H]1COC)OCO3 [HYPOPHYLLANTHIN]
inactive: [1] 51.6 µM | [2] > 100 µM | [3] > 100 µM | [4] > 100 µM | [5] > 100 µM | [6] > 100 µM | [7] > 100 µM | [18] > 100 µM | [8] > 100 µM | [10] > 100 µM | [11] 70.1 µM | [12] > 100 µM | [13] > 100 µM | [14] > 100 µM | [15] > 10 µM | [16] > 100 µM | [17] 42.6 µM
